Measurements: patent publication US20100298141A1, “SUBSTITUTED PYRIDINE N-OXIDE HERBICIDES” (E. I. DU PONT DE NEMOURS AND COMPANY, priority 2007, published 2010)

Legend:
Assay in all cases: Test F preemergence test
Conditions in all cases: scale 0 to 100
[1] = test system: naked crabgrass; assay type: in vivo, Digitaria nuda
How it was run: (§1)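 Compound in a non-phytotoxic solvent blend with surfactant is applied preemergence to planted seeds or postemergence to sugarcane plants. Plants and controls stay in the greenhouse 14 to 21 days before visual comparison.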

[2] = test system: bermudagrass; assay type: in vivo, Cynodon dactylon
How it was run: as §1

[3] = test system: common chickweed; assay type: in vivo, Stellaria media
How it was run: as §1

[4] = test system: common purslane; assay type: in vivo, Portulaca oleracea
How it was run: as §1

[5] = test system: Virginia dayflower; assay type: in vivo, Commelina virginica
How it was run: as §1

[6] = test system: annual bluegrass; assay type: in vivo, Poa annua
How it was run: as §1

[7] = test system: dallisgrass; assay type: in vivo, Paspalum dilatatum
How it was run: as §1

[8] = test system: purple nutsedge; assay type: in vivo, Cyperus rotundus
How it was run: as §1

[9] = test system: common mallow; assay type: in vivo, Malva sylvestris
How it was run: as §1

[10] = test system: pitted morningglory; assay type: in vivo, Ipomoea lacunosa
How it was run: as §1

[11] = test system: common groundsel; assay type: in vivo, Senecio vulgaris
How it was run: as §1

[12] = test system: mustard; assay type: in vivo, Brassica nigra
How it was run: as §1

[13] = test system: kochia; assay type: in vivo, Kochia scoparia
How it was run: as §1

[14] = test system: prickly sida; assay type: in vivo, Sida spinosa
How it was run: as §1

[15] = test system: broadleaf signalgrass; assay type: in vivo, Brachiaria platyphylla
How it was run: as §1

[16] = test system: quackgrass; assay type: in vivo, Elytrigia repens
How it was run: as §1

[17] = test system: guineagrass; assay type: in vivo, Panicum maximum
How it was run: as §1

[18] = test system: Canada horseweed; assay type: in vivo, Conyza canadensis
How it was run: as §1

[19] = test system: barnyardgrass; assay type: in vivo, Echinochloa crus-galli
How it was run: as §1

## Cc1cc[n+]([O-])c(S(=O)(=O)C(Cl)c2c(C(F)(F)F)nn(C)c2Cl)c1 (racemic) [Compound 22]
[1]; 62 g ai/ha, Preemergence
  Crabgrass, Naked plant response rating: 80
[1]; 125 g ai/ha, preemergence
  Crabgrass, Naked plant response rating: 100
[1]; Preemergence, 16 g ai/ha
  Plant response rating, Crabgrass, Naked: 40
[1]; Preemergence, 31 g ai/ha
  Plant response rating, Crabgrass, Naked: 75
[2]; 62 g ai/ha, Preemergence
  Bermudagrass plant response rating: 80
[2]; 125 g ai/ha, preemergence
  Bermudagrass plant response rating: 90
[2]; Preemergence, 16 g ai/ha
  Plant response rating, Bermudagrass: 0
[2]; Preemergence, 31 g ai/ha
  Plant response rating, Bermudagrass: 35
[3]; 62 g ai/ha, Preemergence
  Chickweed plant response rating: 100
[3]; 125 g ai/ha, preemergence
  Chickweed plant response rating: 100
[3]; Preemergence, 16 g ai/ha
  Plant response rating, Chickweed: 0
[3]; Preemergence, 31 g ai/ha
  Plant response rating, Chickweed: 65
[4]; 62 g ai/ha, Preemergence
  Purslane plant response rating: 30
[4]; 125 g ai/ha, preemergence
  Purslane plant response rating: 90
[4]; Preemergence, 16 g ai/ha
  Plant response rating, Purslane: 0
[4]; Preemergence, 31 g ai/ha
  Plant response rating, Purslane: 30
[5]; 62 g ai/ha, Preemergence
  Dayflower plant response rating: 40
[5]; 125 g ai/ha, preemergence
  Dayflower plant response rating: 100
[5]; Preemergence, 16 g ai/ha
  Plant response rating, Dayflower: 0
[5]; Preemergence, 31 g ai/ha
  Plant response rating, Dayflower: 0
[6]; 62 g ai/ha, Preemergence
  Bluegrass plant response rating: 30
[6]; 125 g ai/ha, preemergence
  Bluegrass plant response rating: 50
[6]; Preemergence, 16 g ai/ha
  Plant response rating, Bluegrass: 0
[6]; Preemergence, 31 g ai/ha
  Plant response rating, Bluegrass: 0
[7]; 62 g ai/ha, Preemergence
  Dallisgrass plant response rating: 90
[7]; 125 g ai/ha, preemergence
  Dallisgrass plant response rating: 100
[7]; Preemergence, 16 g ai/ha
  Plant response rating, Dallisgrass: 0
[7]; Preemergence, 31 g ai/ha
  Plant response rating, Dallisgrass: 20
[8]; 62 g ai/ha, Preemergence
  Purple Nutsedge plant response rating: 50
[8]; 125 g ai/ha, preemergence
  Purple Nutsedge plant response rating: 60
[8]; Preemergence, 16 g ai/ha
  Plant response rating, Purple Nutsedge: 0
[8]; Preemergence, 31 g ai/ha
  Plant response rating, Purple Nutsedge: 15
[9]; 62 g ai/ha, Preemergence
  Mallow plant response rating: 65
[9]; 125 g ai/ha, preemergence
  Mallow plant response rating: 65
[9]; Preemergence, 16 g ai/ha
  Plant response rating, Mallow: 0
[9]; Preemergence, 31 g ai/ha
  Plant response rating, Mallow: 0
[10]; 62 g ai/ha, Preemergence
  Morningglory plant response rating: 0
[10]; 125 g ai/ha, preemergence
  Morningglory plant response rating: 20
[10]; Preemergence, 16 g ai/ha
  Plant response rating, Morningglory: 0
[10]; Preemergence, 31 g ai/ha
  Plant response rating, Morningglory: 0
[11]; 62 g ai/ha, Preemergence
  Groundsel plant response rating: 50
[11]; 125 g ai/ha, preemergence
  Groundsel plant response rating: 98
[11]; Preemergence, 16 g ai/ha
  Plant response rating, Groundsel: 0
[11]; Preemergence, 31 g ai/ha
  Plant response rating, Groundsel: 50
[12]; 62 g ai/ha, Preemergence
  Black Mustard plant response rating: 50
[12]; 125 g ai/ha, preemergence
  Black Mustard plant response rating: 80
[12]; Preemergence, 16 g ai/ha
  Plant response rating, Black Mustard: 0
[12]; Preemergence, 31 g ai/ha
  Plant response rating, Black Mustard: 20
[13]; 62 g ai/ha, Preemergence
  Kochia plant response rating: 100
[13]; 125 g ai/ha, preemergence
  Kochia plant response rating: 98
[13]; Preemergence, 16 g ai/ha
  Plant response rating, Kochia: 98
[13]; Preemergence, 31 g ai/ha
  Plant response rating, Kochia: 100
[14]; 62 g ai/ha, Preemergence
  Prickly Sida plant response rating: 40
[14]; 125 g ai/ha, preemergence
  Prickly Sida plant response rating: 80
[14]; Preemergence, 16 g ai/ha
  Plant response rating, Prickly Sida: 0
[14]; Preemergence, 31 g ai/ha
  Plant response rating, Prickly Sida: 40
[15]; 62 g ai/ha, Preemergence
  Signalgrass plant response rating: 60
[15]; 125 g ai/ha, preemergence
  Signalgrass plant response rating: 80
[15]; Preemergence, 31 g ai/ha
  Plant response rating, Signalgrass: 50
[16]; 62 g ai/ha, Preemergence
  Quackgrass plant response rating: 20
[16]; 125 g ai/ha, preemergence
  Quackgrass plant response rating: 60
[16]; Preemergence, 16 g ai/ha
  Plant response rating, Quackgrass: 0
[16]; Preemergence, 31 g ai/ha
  Plant response rating, Quackgrass: 10
[17]; 62 g ai/ha, Preemergence
  Guineagrass plant response rating: 90
[17]; 125 g ai/ha, preemergence
  Guineagrass plant response rating: 100
[17]; Preemergence, 16 g ai/ha
  Plant response rating, Guineagrass: 60
[17]; Preemergence, 31 g ai/ha
  Plant response rating, Guineagrass: 80
[18]; 62 g ai/ha, Preemergence
  Horseweed plant response rating: 0
[18]; 125 g ai/ha, preemergence
  Horseweed plant response rating: 100
[18]; Preemergence, 16 g ai/ha
  Plant response rating, Horseweed: 0
[18]; Preemergence, 31 g ai/ha
  Plant response rating, Horseweed: 0
[19]; 62 g ai/ha, Preemergence
  Barnyardgrass plant response rating: 75
[19]; 125 g ai/ha, preemergence
  Barnyardgrass plant response rating: 95
[19]; Preemergence, 16 g ai/ha
  Plant response rating, Barnyardgrass: 10
[19]; Preemergence, 31 g ai/ha
  Plant response rating, Barnyardgrass: 40
